Patent publication US11274084B2, “3-aryl-4-amido-bicyclic [4,5,0] hydroxamic acids as HDAC inhibitors” (Valo Health, Inc., priority 2015, dated 2022)

Each compound was assayed against T1, HDAC6 (Homo sapiens, UniProt Q9UBN7) (assay: In vitro histone deacetylase assay: enzymatic HDAC6 assay by electrophoretic mobility shift). Settings: full length human recombinant HDAC6 1 nM, 2 μM peptide substrate RHKK(Ac)-NH2, 25° C., 12 concentrations; read-out: Inhibitory Concentration (IC50) against HDAC6, Activity Range.
T1 construct: Full length human recombinant HDAC6 protein; made in house
T1 sequence (Q9UBN7 1-1215): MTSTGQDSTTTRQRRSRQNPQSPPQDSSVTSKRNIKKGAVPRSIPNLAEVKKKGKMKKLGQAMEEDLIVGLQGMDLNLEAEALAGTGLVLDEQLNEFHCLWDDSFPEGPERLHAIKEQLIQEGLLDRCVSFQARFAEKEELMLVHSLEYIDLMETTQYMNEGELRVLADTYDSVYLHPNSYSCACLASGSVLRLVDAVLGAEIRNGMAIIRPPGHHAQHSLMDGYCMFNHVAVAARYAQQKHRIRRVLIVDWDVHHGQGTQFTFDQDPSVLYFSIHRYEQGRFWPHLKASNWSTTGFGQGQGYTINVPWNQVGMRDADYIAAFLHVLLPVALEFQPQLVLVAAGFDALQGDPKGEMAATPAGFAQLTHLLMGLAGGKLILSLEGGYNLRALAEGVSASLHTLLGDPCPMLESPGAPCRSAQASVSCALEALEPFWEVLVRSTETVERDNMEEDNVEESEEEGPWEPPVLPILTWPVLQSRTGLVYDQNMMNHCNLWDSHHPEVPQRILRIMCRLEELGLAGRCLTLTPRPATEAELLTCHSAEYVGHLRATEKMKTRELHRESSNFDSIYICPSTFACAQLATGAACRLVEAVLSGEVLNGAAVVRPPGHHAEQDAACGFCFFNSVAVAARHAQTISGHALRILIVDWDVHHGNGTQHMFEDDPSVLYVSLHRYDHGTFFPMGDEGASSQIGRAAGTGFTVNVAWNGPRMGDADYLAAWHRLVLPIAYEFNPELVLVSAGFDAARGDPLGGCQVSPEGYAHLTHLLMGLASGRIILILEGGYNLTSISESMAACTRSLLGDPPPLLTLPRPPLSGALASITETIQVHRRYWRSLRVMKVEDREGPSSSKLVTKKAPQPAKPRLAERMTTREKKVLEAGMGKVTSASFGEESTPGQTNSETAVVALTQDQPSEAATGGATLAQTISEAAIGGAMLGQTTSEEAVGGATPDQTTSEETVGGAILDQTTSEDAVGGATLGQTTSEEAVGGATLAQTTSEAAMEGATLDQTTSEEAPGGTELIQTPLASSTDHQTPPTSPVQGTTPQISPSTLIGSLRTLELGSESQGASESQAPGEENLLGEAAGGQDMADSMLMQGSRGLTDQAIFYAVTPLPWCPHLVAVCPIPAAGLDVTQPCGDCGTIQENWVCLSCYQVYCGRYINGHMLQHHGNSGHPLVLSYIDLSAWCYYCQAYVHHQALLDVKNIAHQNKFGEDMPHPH
Type: biochemical
Experimental: The enzymatic HDAC6 assay was performed using electrophoretic mobility shift assay. […] The enzymatic reactions were assembled in 384-well plates in a total volume of 25 μL of a reaction buffer comprising. 100 mM HEPES, pH 7.5, 25 mM KCl, 0.1% bovine serum albumin, 0.01% Triton X-100, 1% DMSO (from compounds), 2 μM of the fluorescently labeled peptide substrate, and enzyme. The enzyme was added at a final concentration of 1 nM. The peptide substrate RHKK(Ac)-NH2 was used. The compounds were tested at 12 concentrations spaced by 3× dilution intervals. Negative control samples (0%-inhibition in the absence of inhibitor) and positive control samples (100%-inhibition) were assembled in replicates of four in each assay plate. The reactions were incubated at 25° C. and quenched by the addition of 45 μL of termination buffer (100 mM HEPES, pH 7.5, 0.01% Triton X-100, 0.05% SDS).
The terminated assay plates were analyzed on LabChip® 3000 microfluidic electrophoresis instrument (Perkin Elmer/Caliper Life Sciences). The fluorescence intensity of the electrophoretically separated de-acetylated product and substrate peptide was measured. Activity in each sample was determined as the product to sum ratio (PSR):P/(S+P), where P is the peak height of the product peptide and S is the peak height of the substrate peptide. Percent inhibition (Pinh) is determined using the following equation:
Pinh=(PSR0%−PSRinh)/(PSR0%−PSR100%)*100, where PSRinh is the product sum ratio in the presence of inhibitor, PSR0% is the average product sum ration in the absence of inhibitor, and PSR100% is the average product sum ratio in 100%-inhibition control samples. The IC50 values of inhibitors were determined by fitting the %-inhibition curves with 4 parameter dose-response models using XLfit 4 software.

IC50, ≤ 100 nM:
CC(C)(C)C(=O)N1Cc2ccc(C(=O)NO)cc2OC[C@@H]1c1ccccc1 [(S)-N-hydroxy-3-phenyl-4-pivaloyl-2,3,4,5-tetrahydrobenzo[f][1,4]oxazepine-8-carboxamide], COC1(C(=O)N2Cc3ccc(C(=O)NO)cc3OC[C@@H]2c2ccccc2)CCCCC1 [(S)-N-hydroxy-4-(1-methoxycyclohexane-1-carbonyl)-3-phenyl-2,3,4,5-tetrahydrobenzo[f][1,4]oxazepine-8-carboxamide], COC1(C(=O)N2Cc3ccc(C(=O)NO)cc3OC[C@@H]2c2ccccc2)CC1 [(S)-N-hydroxy-4-(1-methoxycyclopropane-1-carbonyl)-3-phenyl-2,3,4,5-tetrahydrobenzo[f][1,4]oxazepine-8-carboxamide], CN1CCC(C(=O)N2Cc3ccc(C(=O)NO)cc3OC[C@@H]2c2ccccc2)CC1 [(S)-N-hydroxy-4-(1-methylpiperidine-4-carbonyl)-3-phenyl-2,3,4,5-tetrahydrobenzo[f][1,4]oxazepine-8-carboxamide], COC(C)(C)C(=O)N1Cc2ccc(C(=O)NO)cc2OC[C@@H]1c1ccccc1 [(S)-N-hydroxy-4-(2-methoxy-2-methylpropanoyl)-3-phenyl-2,3,4,5-tetrahydrobenzo[f][1,4]oxazepine-8-carboxamide], CC1(C(=O)N2Cc3ccc(C(=O)NO)cc3OC[C@@H]2c2ccccc2)CCOCC1 [(S)-N-hydroxy-4-(4-methyltetrahydro-2H-pyran-4-carbonyl)-3-phenyl-2,3,4,5-tetrahydrobenzo[f][1,4]oxazepine-8-carboxamide], CO[C@H]1CC[C@H](C(=O)N2Cc3ccc(C(=O)NO)cc3OC[C@@H]2c2ccccc2)CC1 [(S)-N-hydroxy-4-((1r,4S)-4-methoxycyclohexane-1-carbonyl)-3-phenyl-2,3,4,5-tetrahydrobenzo[f][1,4]oxazepine-8-carboxamide], CO[C@H]1CC[C@@H](C(=O)N2Cc3ccc(C(=O)NO)cc3OC[C@@H]2c2ccccc2)CC1 [(S)-N-hydroxy-4-((1s,4R)-4-methoxycyclohexane-1-carbonyl)-3-phenyl-2,3,4,5-tetrahydrobenzo[f][1,4]oxazepine-8-carboxamide], O=C(NO)c1ccc2c(c1)OC[C@H](c1ccccc1)N(C(=O)C1COC1)C2 [(S)-N-hydroxy-4-(oxetane-3-carbonyl)-3-phenyl-2,3,4,5-tetrahydrobenzo[f][1,4]oxazepine-8-carboxamide], O=C(NO)c1ccc2c(c1)OC[C@H](c1ccc(C(F)(F)F)cc1)N(C(=O)C1CCOCC1)C2 [(S)-N-hydroxy-4-(tetrahydro-2H-pyran-4-carbonyl)-3-(4-(trifluoromethyl)phenyl)-2,3,4,5-tetrahydrobenzo[f][1,4]oxazepine-8-carboxamide], Cc1ccccc1[C@H]1COc2cc(C(=O)NO)ccc2CN1C(=O)C1CCOCC1 [(S)-N-hydroxy-4-(tetrahydro-2H-pyran-4-carbonyl)-3-(o-tolyl)-2,3,4,5-tetrahydrobenzo[f][1,4]oxazepine-8-carboxamide], Cc1ccc([C@H]2COc3cc(C(=O)NO)ccc3CN2C(=O)C2CCOCC2)cc1 [(S)-N-hydroxy-4-(tetrahydro-2H-pyran-4-carbonyl)-3-(p-tolyl)-2,3,4,5-tetrahydrobenzo[f][1,4]oxazepine-8-carboxamide], CC(C)C(=O)N1Cc2ccc(C(=O)NO)cc2OC[C@@H]1c1ccccc1 [(S)-N-hydroxy-4-isobutyryl-3-phenyl-2,3,4,5-tetrahydrobenzo[f][1,4]oxazepine-8-carboxamide], O=C(NO)c1ccc2c(c1)OC[C@H](c1ccccc1)N(C(=O)c1ccncc1)C2 [(S)-N-hydroxy-4-isonicotinoyl-3-phenyl-2,3,4,5-tetrahydrobenzo[f][1,4]oxazepine-8-carboxamide], O=C(NO)c1ccc2c(c1)OC[C@H](c1ccccc1)N(C(=O)c1cccnc1)C2 [(S)-N-hydroxy-4-nicotinoyl-3-phenyl-2,3,4,5-tetrahydrobenzo[f][1,4]oxazepine-8-carboxamide], COCC1(C(=O)N2Cc3ccc(C(=O)NO)cc3OC[C@@H]2c2ccccc2)CC1 [(S)—N-hydroxy-4-(1-(methoxymethyl)cyclopropane-1-carbonyl)-3-phenyl-2,3,4,5-tetrahydrobenzo[f][1,4]oxazepine-8-carboxamide]
